Assay results as given in PMC10484210 (Biochemistry, 2023).

What was measured:
BcPurE = BcPurE (Burkholderia cenocepacia, UniProt B4EA21); experiment: biochemical; format: biochemical; settings: for inhibition of PurE activity in initial screen: two concentrations, 10 and 100 μM, against BcPurE
human PAICS = human PAICS (Homo sapiens, UniProt P22234); format: biochemical; settings: two concentrations, 10 and 100 μM
Chain of human PAICS (P22234 whole entry): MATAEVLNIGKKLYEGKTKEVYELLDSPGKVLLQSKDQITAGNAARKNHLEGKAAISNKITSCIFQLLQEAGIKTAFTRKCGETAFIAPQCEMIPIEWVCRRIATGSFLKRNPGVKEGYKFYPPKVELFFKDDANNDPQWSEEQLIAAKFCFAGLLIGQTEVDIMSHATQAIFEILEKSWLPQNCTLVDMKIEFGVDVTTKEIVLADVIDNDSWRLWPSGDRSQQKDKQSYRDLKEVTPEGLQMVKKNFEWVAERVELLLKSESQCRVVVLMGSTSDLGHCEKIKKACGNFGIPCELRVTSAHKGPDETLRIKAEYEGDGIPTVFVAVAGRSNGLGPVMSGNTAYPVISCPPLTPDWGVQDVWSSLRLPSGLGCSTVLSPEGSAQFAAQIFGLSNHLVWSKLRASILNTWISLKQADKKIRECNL

Chain of BcPurE (B4EA21 1-173): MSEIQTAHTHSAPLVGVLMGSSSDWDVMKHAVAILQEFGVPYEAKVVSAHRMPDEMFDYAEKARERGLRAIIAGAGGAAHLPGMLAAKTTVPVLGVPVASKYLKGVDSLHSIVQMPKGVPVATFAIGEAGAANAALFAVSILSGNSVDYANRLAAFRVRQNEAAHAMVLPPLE

CN(C)C/C=C/C(=O)Nc1cc2c(Nc3ccc(F)c(Cl)c3)ncnc2cc1O[C@H]1CCOC1 [Afatinib]
inhibition of PurE activity in initial screen (BcPurE): some degree of inhibition
inhibition of human PAICS decarboxylation activity (human PAICS): do inhibit

COc1cc2nc(N(C)CCCNC(=O)C3CCCO3)nc(N)c2cc1OC (centres unmarked) [Alfuzosin]
IC50 (BcPurE): 47 µM
inhibition of PurE activity in initial screen (BcPurE): some degree of inhibition
inhibition of human PAICS decarboxylation activity (human PAICS): little or no inhibition

COc1ccc(CN=c2[nH]c(N3CCC[C@H]3CO)ncc2C(=O)NCc2ncccn2)cc1Cl [Avanafil]
inhibition of PurE activity in initial screen (BcPurE): some degree of inhibition
inhibition of human PAICS decarboxylation activity (human PAICS): little or no inhibition

CCc1cc2c(cc1CC)CC(NC[C@H](O)c1ccc(O)c3[nH]c(=O)ccc13)C2 [Indacaterol]
inhibition of PurE activity in initial screen (BcPurE): some degree of inhibition
inhibition of human PAICS decarboxylation activity (human PAICS): do inhibit

CC(=O)N1CCN(c2ccc(OCC3COC(Cn4ccnc4)(c4ccc(Cl)cc4Cl)O3)cc2)CC1 (centres unmarked) [Ketoconazole]
inhibition of PurE activity in initial screen (BcPurE): some degree of inhibition
inhibition of human PAICS decarboxylation activity (human PAICS): little or no inhibition
